{"source": "paper PMC10574185", "about": "“Encapsulation and Biological Activity of Hesperetin Derivatives with HP-β-CD” (Molecules, 2023)", "origin": "cited, not measured here", "tested_on": "prostate cancer cells", "details": "cited from earlier work"}
{"smiles": "COc1ccc(C2CC(=O)c3c(O)cc(O)cc3O2)cc1O", "note": "(centres unmarked) [Hesperetin, 3′,5,7-Trihydroxy-4′-methoxyflavanone]", "values": [{"measurement": "decrease in the cytotoxicity of cabazitaxel", "result": 13.1, "unit": "fold"}, {"measurement": "decrease in the cytotoxicity of docetaxel", "result": 9.8, "unit": "fold"}]}
